Results: patent publication US20190225650A1, “PEPTIDOMIMETIC MACROCYCLES AND USE THEREOF IN REGULATING HIF1ALPHA” (AILERON THERAPEUTICS, INC., priority 2013, published 2019)
Bridge positions count the residues as written; N and C are the ends. Square brackets hold non-standard residues; d marks the D form. Peptide text beside a SMILES is read from it. R8 = C=CCCCCCC[C@@](C)(N)C(=O)O; S5 = C=CCCC[C@](C)(N)C(=O)O; Nle = CCCC[C@H](N)C(=O)O

These compounds were tested against T1, flag-tagged HIF1α (AA 786-826) / His6-tagged p300 (AA 323-423) complex (Homo sapiens, UniProt Q09472) (assay: HIF1α p300 displacement assay (TR FRET, +CHAPS)). Settings: read-out: IC50 (nM) (HIF1α_p300 Displacement + CHAPS).
T1 construct: His6-tagged p300 (AA 323-423); made in house; host or cells: E. coli (pETDuet vector)
Type: binding
Outline: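 In this TR-FRET displacement format, peptides compete HIF1α C-terminal transactivation domain off p300-CH. They were preincubated 1 h at room temperature with 300 nM complex in HEPES pH 7.4/NaCl buffer with 7.5 mM CHAPS and 1 mM DTT. Anti-His-D2 (4 nM) and anti-Flag-K (0.5 μM) followed for 2 h, and a one-site fit of the fluorescence ratio gave IC50.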

Row | SMILES | IC50 [nM]
1 | CCCC[C@H](NC(=O)[C@H](Cc1ccccc1)NC(=O)[C@@H](NC(=O)[C@H](CCC(=O)O)NC(=O)[C@H](CCC(=O)O)NC(=O)[C@H](CC(=O)O)NC(=O)[C@@H](NC(=O)[C@H](Cc1ccccc1)NC(C)=O)[C@@H](C)CC)C(C)C)C(=O)N[C@@]1(C)CCCC=CCCC[C@@](C)(C(=O)N[C@@H](CCCC)C(=O)N[C@@H](C)C(=O)N[C@@H](CC(C)C)C(=O)N[C@@H](CC(C)C)C(N)=O)NC(=O)[C@H]([C@@H](C)CC)NC(=O)[C@H](C(C)C)NC(=O)[C@H](CC(C)C)NC1=O [SP-242] (Ac-FIDEEVF[Nle][S5]LVI[S5][Nle]ALL-NH2; staple 9-13) | ≤ 200
2 | CCCC[C@@H]1NC(=O)[C@](C)(NC(=O)[C@@H](NC(=O)[C@H](CCC(=O)O)NC(=O)[C@H](CCC(=O)O)NC(=O)[C@H](CC(=O)O)NC(=O)[C@@H](NC(=O)[C@H](CC(N)=O)NC(=O)[C@@H](NC(=O)[C@H](CCC(N)=O)NC(=O)[C@H](CC(=O)O)NC(=O)[C@H](CC(C)C)NC(=O)[C@]2(C)CCCC=CCCC[C@](C)(NC(=O)[C@H](CCC(=O)O)NC(=O)CNC(=O)[C@H](CCC(N)=O)NC(=O)[C@H](CC(C)C)NC(=O)[C@H](CC(C)C)NC(C)=O)C(=O)N[C@@H](CC(C)C)C(=O)N[C@@H](CC(C)C)C(=O)N[C@@H](CCCNC(=N)N)C(=O)N2)C(C)C)[C@@H](C)CC)C(C)C)CCCCCCC=CCCC[C@@](C)(C(=O)NCC(N)=O)NC(=O)[C@H](CCC(=O)O)NC(=O)[C@H]([C@@H](C)CC)NC(=O)[C@H](C(C)C)NC(=O)[C@H](CC(C)C)NC(=O)[C@H](CO)NC1=O [SP-315] (Ac-LLQGE[S5]LLR[S5]LDQVNIDEEV[R8][Nle]SLVIE[S5]G-NH2; staple 6-10, 21-28) | > 700
3 | CSCC[C@H](NC(=O)[C@H](CO)NC(=O)[C@]1(C)CCCC=CCCCCCC[C@@](C)(NC(=O)[C@H](CCC(=O)O)NC(=O)[C@@H](NC(=O)[C@H](CC(C)C)NC(C)=O)[C@@H](C)O)C(=O)N[C@@H](C(C)C)C(=O)N[C@@H](CC(C)C)C(=O)N[C@@H](CCSC)C(=O)N[C@@H](CO)C(=O)N[C@@H](CC(C)C)C(=O)N[C@@H](C(C)C)C(=O)N1)C(=O)N[C@@H](C)C(N)=O [SP-180] (Ac-LTE[R8]VLMSLV[S5]SMA-NH2; staple 4-11) | > 700
4 | CCCC[C@@H]1NC(=O)[C@](C)(NC(=O)[C@@H](NC(=O)[C@H](CCC(=O)O)NC(=O)[C@H](CCC(=O)O)NC(=O)[C@H](CC(=O)O)NC(=O)[C@@H](NC(=O)[C@H](CC(N)=O)NC(=O)[C@@H](NC(=O)[C@]2(C)CCCC=CCCCCCC[C@@](C)(NC(=O)[C@H](CCC(=O)O)NC(=O)CNC(=O)[C@H](CCC(N)=O)NC(=O)[C@H](CC(C)C)NC(=O)[C@H](CC(C)C)NC(C)=O)C(=O)N[C@@H](CC(C)C)C(=O)N[C@@H](CC(C)C)C(=O)N[C@@H](CCCNC(=N)N)C(=O)N[C@@H](C)C(=O)N[C@@H](CC(C)C)C(=O)N[C@@H](CC(=O)O)C(=O)N2)C(C)C)[C@@H](C)CC)C(C)C)CCCCCCC=CCCC[C@@](C)(C(=O)NCC(N)=O)NC(=O)[C@H](CCC(=O)O)NC(=O)[C@H]([C@@H](C)CC)NC(=O)[C@H](C(C)C)NC(=O)[C@H](CC(C)C)NC(=O)[C@H](CO)NC1=O [SP-317] (Ac-LLQGE[R8]LLRALD[S5]VNIDEEV[R8][Nle]SLVIE[S5]G-NH2; staple 6-13, 21-28) | > 700
5 | CC[C@H](C)[C@H](NC(=O)[C@H](Cc1ccccc1)NC(C)=O)C(=O)N[C@@H](CC(=O)O)C(=O)N[C@@H](CCC(=O)O)C(=O)N[C@]1(C)CCCCCCC=CCCC[C@@](C)(C(=O)N[C@@H](CCC(=O)O)C(=O)N[C@@H](CCSC)C(=O)N[C@@H](C)C(=O)N[C@@H](C)C(N)=O)NC(=O)[C@H](C(C)C)NC(=O)[C@H](CC(C)C)NC(=O)[C@H](CO)NC(=O)[C@H](CCSC)NC(=O)[C@H](CC(C)C)NC(=O)[C@H](C(C)C)NC1=O [SP-178] (Ac-FIDE[R8]VLMSLV[S5]EMAA-NH2; staple 5-12) | > 700
